Patent US4001263A, “5-Aryl-1,2,3,4-tetrahydro-γ-carbolines” (Pfizer Inc., priority 1975, dated 1977)
Counter-ions that a name gives are not always drawn. Like-named read-outs stand apart in the source and are kept apart here.

System: amphetamine-induced symptoms in rats
Test: antagonism of amphetamine-induced symptoms in rats (block of characteristic amphetamine cage movement behavior)
Type: in vivo
Settings: Rattus norvegicus, ip
Text: The tranquilizing agents of the present invention are characterized by relief of such schizophrenic manifestations in humans as hallucinations, hostility, suspiciousness, emotional or social withdrawal, anxiety, agitation and tension. Standard procedures of detecting and comparing tranquilizing activity of compounds in this series and for which there is an excellent correlation with human efficacy is the antagonism of amphetamine-induced symptoms in rats test, as taught by A. Weissman, et al., J. Pharmacol. Exp. Ther., 151, 339 (1966) and by Quinton, et al.,Nature, 200, 178 (1963).
The effects of the compounds of the present invention on prominent amphetamine-induced symptoms were studied in rats by a rating scale modeled after the one reported by Quinton and Halliwell, and Weissman. Groups of five rats were placed in a covered plastic cage measuring approximately 26 cm. × 42 cm. × 16 cm. After a brief period of acclimation in the cage, the rats in each groups were treated intraperitoneally (i.p.) with the test compound. […] On the basis of dose-response data after amphetamine it was possible to determine the effective dose of the compound necessary to antagonize or block the characteristic amphetamine behavior of cage movement for 50 percent of the rats tested (ED50). The time of rating chosen coincides with the peak action of amphetamine which is 60-80 min. after treatment with this agent.
Employing the above-described procedure, the following compounds were tested for their ability to block the behavior effects of amphetamine, the results being reported as the ED50 in mg./kg. at the indicated times: […]

[1] = rats, i.p., d-amphetamine sulfate 5 mg./kg. i.p. given 1 hr. after test compound, read-out: ED50 to antagonize or block amphetamine behavior, 1 hr.
[2] = rats, i.p., d-amphetamine sulfate 5 mg./kg. i.p. given 5 hrs. after test compound, read-out: ED50 to antagonize or block amphetamine behavior, 5 hrs.
[3] = rats, i.p., d-amphetamine sulfate 5 mg./kg. i.p. given 24 hrs. after test compound, read-out: ED50 to antagonize or block amphetamine behavior, 24 hrs.

## CN1CCc2c(c3cc(F)ccc3n2-c2ccccc2)C1 [F, H, CH3]
[1]
  ED50: 3.2 to 10 mg/kg

## CCCN1CCc2c(c3cc(F)ccc3n2-c2ccc(F)cc2)C1 [F, F, n-C3H7, 8-fluoro-5-(p-fluorophenyl)-2-n-propyl-1,2,3,4-tetrahydro-γ-carboline]
[1]
  ED50: 3.2 to 10 mg/kg
[2]
  ED50: > 10 mg/kg
[3]
  ED50: > 3.2 mg/kg

## Fc1ccc(C=CCCN2CCc3c(c4cc(F)ccc4n3-c3ccc(F)cc3)C2)cc1 [F, F, p-FC6H4CHCH(CH2)2, 8-Fluoro-5-(p-fluorophenyl)-2-[4-(p-fluorophenyl)-3-butenyl]-1,2,3,4-tetrahydro-γ-carboline]
[1]
  ED50: 3.2 to 10 mg/kg
[2]
  ED50: 1 to 3.2 mg/kg
[3]
  ED50: > 3.2 mg/kg

## CC(C)(C)CCN1CCc2c(c3cc(F)ccc3n2-c2ccc(F)cc2)C1 [F, F, (CH3)3C(CH2)2, 8-fluoro-5-(p-fluorophenyl)-2-(3,3-dimethyl-n-buty)-1,2,3,4-tetrahydro-γ-carboline]
[1]
  ED50: 1 to 3.2 mg/kg
[2]
  ED50: > 10 mg/kg
[3]
  ED50: > 10 mg/kg

## c1ccc(CN2CCc3c(c4ccccc4n3-c3ccccc3)C2)cc1 [H, H, CH2C6H5, 5-phenyl-2-benzyl-1,2,3,4-tetrahydro-γ-carboline, reference compound]
[1]
  ED50: > 32 mg/kg

## CCN1CCc2c(c3cc(Cl)ccc3n2-c2ccccc2)C1 [Cl, H, C2H5]
[1]
  ED50: 3.2 to 10 mg/kg

## CN1CCc2c(c3ccccc3n2-c2ccccc2)C1 [H, H, CH3, 5-phenyl-2-methyl-1,2,3,4-tetrahydro-γ-carboline, reference compound]
[1]
  ED50: 10 to 32 mg/kg

## CN1CCc2c(c3cc(Cl)ccc3n2-c2ccccc2)C1 [Cl, H, CH3, 8-Chloro-5-phenyl-2-methyl-1,2,3,4-tetrahydro-γ-carboline hydrochloride]
[1]
  ED50: 3.2 to 10 mg/kg

## CN1CCc2c(c3cc(F)ccc3n2-c2ccc(F)cc2)C1 [F, F, CH3, 8-Fluoro-5-(p-fluorophenyl)-2-methyl-1,2,3,4-tetrahydro-γ-carboline hydrochloride]
[1]
  ED50: 1 to 3.2 mg/kg

## CN1CCc2c(c3cc(Br)ccc3n2-c2ccccc2)C1 [Br, H, CH3]
[1]
  ED50: 3.2 to 10 mg/kg

## CCN1CCc2c(c3cc(F)ccc3n2-c2ccc(F)cc2)C1 [F, F, C2H5, 8-Fluoro-5-(p-fluorophenyl)-2-ethyl-1,2,3,4-tetrahydro-γ-carboline hydrochloride]
[1]
  ED50: 3.2 to 10 mg/kg
[2]
  ED50: > 10 mg/kg
[3]
  ED50: > 10 mg/kg

## CN(C)CCCN1c2ccccc2Sc2ccc(Cl)cc21 [chlorpromazine, reference compound]
1 h, read-out: ED50 to antagonize or block amphetamine behavior, 1 hr.
  ED50: 7 mg/kg
